Source: patent US10562842B2, “Use of polyaminoisoprenyl derivatives in antibiotic or antiseptic treatment” (UNIVERSITE D'AIX-MARSEILLE, priority 2011, dated 2020)
Converted amounts (≈) assume the structure as drawn.

Tests used:
BN10055ΔacrB [1] = assay: MIC by broth dilution (intrinsic MIC); assay type: cell-based, Salmonella enterica; conditions: Salmonella BN10055ΔacrB
Description: (§1) Susceptibilities to antibiotics and compounds were determined in microplates by broth dilution method, as previously described. Minimal Inhibitory Concentrations (MICs) were determined with an inoculum of 10^6 CFU in 200 μL of MH broth containing two-fold serial dilutions of each drug. […] All MIC determinations were repeated at least three times in independent experiments.

BN10055 = assay: MIC by broth dilution (intrinsic MIC); assay type: cell-based, Salmonella enterica; conditions: Salmonella enterica; Salmonella BN10055
Description: as §1

PAO1 [2] = assay: MIC of antibiotics ± test compound (MIC ratio), micro-broth dilution; assay type: cell-based, Pseudomonas aeruginosa; conditions: compound at MIC/4
Description: as §1
(§2) The MICs of chloramphenicol±test compounds (MIC/4) were determined by the micro-broth dilution method (9). All MIC determinations were repeated at least three times in independent experiments. The MIC ratio corresponds to the ratio of the MIC of an antibiotic alone to the MIC of the same antibiotic in the presence of the tested compound (at MIC/4).
(§3) For reminder, the MIC ratio corresponds to the ratio of the MIC of the assessed antibiotic alone to the MIC of the same antibiotic in the presence of the tested compound (at MIC/4).

PA124 [3] = assay: as above; assay type: cell-based, Pseudomonas aeruginosa; conditions: compound at MIC/4
Description: as §1, §2, §3

PAO1 [4] = assay: MIC by broth dilution (intrinsic MIC); assay type: cell-based; conditions: Pseudomonas aeruginosa
Description: as §1

Ea27 [5] = assay: MIC by broth dilution (intrinsic MIC); assay type: cell-based; conditions: Klebsiella aerogenes; Enterobacter Ea27
Description: as §1

PA124 [6] = assay: MIC by broth dilution (intrinsic MIC); assay type: cell-based; conditions: Pseudomonas aeruginosa
Description: as §1

AB1 [7] = assay: MIC by broth dilution (intrinsic MIC); assay type: cell-based; conditions: Acinetobacter baumannii
Description: as §1

AG100 [8] = assay: MIC by broth dilution (intrinsic MIC); assay type: cell-based; conditions: Escherichia coli AG100
Description: as §1

ATCC 19606 [9] = assay: MIC by broth dilution (intrinsic MIC); assay type: cell-based; conditions: Acinetobacter baumannii, ATCC19606; Acinetobacter ATCC 19606
Description: as §1

ATCC 13048 [10] = assay: MIC by broth dilution (intrinsic MIC); assay type: cell-based; conditions: Klebsiella aerogenes, ATCC13048; Enterobacter ATCC 13048
Description: as §1

Ea27 [11] = assay: MIC of antibiotics ± test compound (MIC ratio), micro-broth dilution; assay type: cell-based, Enterobacter aerogenes; conditions: compound at MIC/4; Example 4
Description: as §1, §2, §3

CM64 = assay: as above; assay type: cell-based, Enterobacter aerogenes; conditions: compound at MIC/4; Example 4
Description: as §1, §2, §3

ATCC 13048 [12] = assay: as above; assay type: cell-based, Enterobacter aerogenes; conditions: compound at MIC/4; Example 4
Description: as §1, §2, §3

Ea289 = assay: MIC by broth dilution (intrinsic MIC); assay type: cell-based, Enterobacter aerogenes; conditions: Klebsiella aerogenes; Enterobacter Ea289
Description: as §1

Ea294 = assay: MIC by broth dilution (intrinsic MIC); assay type: cell-based, Enterobacter aerogenes; conditions: Klebsiella aerogenes, read-out: intrinsic MIC, Ea294
Description: as §1

Ea289ΔacrB (Ea294) = assay: MIC of antibiotics ± test compound (MIC ratio), micro-broth dilution; assay type: cell-based, Enterobacter aerogenes; conditions: compound at MIC/4; Example 4
Description: (§4) The Enterobacter aerogenes Ea289 strain is a Kans derivative of the MDR clinical isolate Ea27, the acrB mutant, EaEP294, was constructed from Ea289. Multidrug-resistant Salmonella enterica serovar Typhimurium DT104 strains (BN10055) was isolated from cattle in France, the isogenic acrB derivative mutant, BN10055ΔacrB, was constructed from BN10055. Strains were maintained at −80° C. in 25% (v/v) glycerol for cryoprotection. Bacteria were routinely grown in Mueller-Hinton (MH) broth at 37° C.
as §1
(§5) […] All MIC determinations were repeated at least three times in independent experiments. The MIC ratio corresponds to the ratio of the MIC of an antibiotic alone to the MIC of the same antibiotic in the presence of the tested compound (at MIC/4).
as §3

AG100 [13] = assay: as above; assay type: cell-based, Escherichia coli; conditions: compound at MIC/4; Example 4
Description: as §1, §2, §3

AB1 [14] = assay: as above; assay type: cell-based, Acinetobacter baumannii; conditions: compound at MIC/4
Description: as §1, §2, §3

ATCC 19606 [15] = assay: as above; assay type: cell-based, Acinetobacter baumannii; conditions: compound at MIC/4
Description: as §1, §2, §3

[16] = tested on: Enterobacter aerogenes MDR Ea289; assay: as above; assay type: cell-based; conditions: compound at MIC/4, Set 2
[17] = tested on: Salmonella Thyphimurium MDR BN10055; assay: as above; assay type: cell-based, Salmonella enterica serovar Typhimurium; conditions: compound at MIC/4
Description: as §4, §1, §5, §3

BN10055ΔacrB [18] = assay: as above; assay type: cell-based, Salmonella enterica serovar Typhimurium; conditions: compound at MIC/4; Example 4
Description: as §4, §1, §5, §3

How did the “intrinsic MIC, BN10055ΔacrB” value (BN10055ΔacrB [1]) turn out when `CC(C)=CCC/C(C)=C/CC/C(C)=C/CNCCCN(C)CCCN` [Compound 14, {3-[(3-Amino-propyl)-methyl-amino]-propyl}-((2E,6E)-3,7,11-trimethyl-dodeca-2,6,10-trienyl)-amine] was run?
The value was 15 µM.

What about the MIC (BN10055) of the same compound?
Its MIC is 31 µM (≈ 10.8 µg/mL).

What about the “MIC ratio Cefepime Pseudomonas aeruginosa PAO1” value (PAO1 [2]) of the same compound?
Its value is 1.

And the “MIC ratio Doxycycline Pseudomonas aeruginosa PAO1” value (PAO1 [2])?
Its value is over 16.

And the “MIC ratio Cefepime Pseudomonas aeruginosa PA124” value (PA124 [3])?
The value was 1.

And the “MIC ratio Chloramphénicol Pseudomonas aeruginosa PA124” value (PA124 [3])?
The value was 128.

What about the “MIC ratio Doxycycline Pseudomonas aeruginosa PA124” value (PA124 [3]) of the same compound?
The value was over 32.

And the “MIC ratio Tetracycline Pseudomonas aeruginosa PA124” value (PA124 [3])?
The value was 8.

And the MIC (PAO1 [4])?
The MIC was 250 µM (≈ 87.4 µg/mL).

And the MIC (Ea27 [5])?
Its MIC is 31 µM (≈ 10.8 µg/mL).

And the MIC (PA124 [6])?
Its MIC is 250 µM (≈ 87.4 µg/mL).

What about the MIC (AB1 [7]) of the same compound?
The MIC was 62 µM (≈ 21.7 µg/mL).

What about the MIC (AG100 [8]) of the same compound?
Its MIC is 62 µM (≈ 21.7 µg/mL).

And the MIC (ATCC 19606 [9])?
The MIC was 62 µM (≈ 21.7 µg/mL).

What about the MIC (ATCC 13048 [10]) of the same compound?
Its MIC is 31 µM (≈ 10.8 µg/mL).

What about the “MIC ratio Chloramphenicol E. aerogenes Ea27” value (Ea27 [11]) of the same compound?
Its value is over 4.

What about the “MIC ratio Doxycycline E. aerogenes Ea27” value (Ea27 [11]) of the same compound?
Its value is 32.

And the “MIC ratio Oxacillin E. aerogenes Ea27” value (Ea27 [11])?
The value was 1.

What about the “MIC ratio Chloramphenicol E. aerogenes CM64” value (CM64) of the same compound?
The value was 16.

And the “MIC ratio Oxacillin E. aerogenes CM64” value (CM64)?
Its value is over 8.

What about the “MIC ratio Chloramphenicol E. aerogenes ATCC13048” value (ATCC 13048 [12]) of the same compound?
The value was over 32.

What about the “MIC ratio Doxycycline E. aerogenes ATCC13048” value (ATCC 13048 [12]) of the same compound?
The value was 64.

And the “MIC ratio Oxacillin E. aerogenes ATCC13048” value (ATCC 13048 [12])?
The value was over 8.

And the MIC (Ea289)?
Its MIC is 31 µM (≈ 10.8 µg/mL).

What about the MIC (Ea294) of the same compound?
The MIC was 15 µM (≈ 5.24 µg/mL).

What about the “MIC ratio Chloramphenicol E. aerogenes Ea294” value (Ea289ΔacrB (Ea294)) of the same compound?
The value was 2.

What about the “MIC ratio Doxycycline E. aerogenes Ea294” value (Ea289ΔacrB (Ea294)) of the same compound?
The value was 4.

What about the “MIC ratio Nalidixic acid E. aerogenes Ea294” value (Ea289ΔacrB (Ea294)) of the same compound?
The value was 4.

What about the “MIC ratio Chloramphenicol E. Coli AG100” value (AG100 [13]) of the same compound?
Its value is 16.

And the “MIC ratio Doxycycline E. Coli AG100” value (AG100 [13])?
The value was over 32.

And the “MIC ratio Oxacillin E. Coli AG100” value (AG100 [13])?
Its value is 16.

And the “MIC ratio Cefepime Acinetobacter baumannii AB1” value (AB1 [14])?
The value was 1.

What about the “MIC ratio Chloramphénicol Acinetobacter baumannii AB1” value (AB1 [14]) of the same compound?
Its value is 16.

And the “MIC ratio Doxycycline Acinetobacter baumannii AB1” value (AB1 [14])?
The value was 2.

And the “MIC ratio Tetracycline Acinetobacter baumannii AB1” value (AB1 [14])?
Its value is 4.

What about the “MIC ratio Cefepime Acinetobacter baumannii ATCC19606” value (ATCC 19606 [15]) of the same compound?
Its value is 4-8.

And the “MIC ratio Chloramphénicol Acinetobacter baumannii ATCC19606” value (ATCC 19606 [15])?
The value was 8.

And the “MIC ratio Doxycycline Acinetobacter baumannii ATCC19606” value (ATCC 19606 [15])?
Its value is 1.

What about the “MIC ratio Tetracycline Acinetobacter baumannii ATCC19606” value (ATCC 19606 [15]) of the same compound?
The value was 4.

What about the “MIC ratio (*) on Ea289 Dox” value ([16]; doxycycline) of the same compound?
The value was 64.

And the “MIC ratio (*) on Ea289 Nal” value ([16]; nalidixic acid)?
Its value is 32.

And the “MIC ratio (*) on BN10055 Chl” value ([17]; chloramphenicol, Set 2)?
The value was 16.

What about the “MIC ratio Chloramphenicol S. enterica BN10055” value ([17]; Example 4) of the same compound?
Its value is 16.

And the “MIC ratio Doxycycline S. enterica BN10055” value ([17]; Example 4)?
The value was 64.

And the “MIC ratio Nalidixic acid S. enterica BN10055” value ([17]; Example 4)?
Its value is 128.

And the “MIC ratio (*) on BN10055 Dox” value ([17]; doxycycline, Set 2)?
Its value is 64.

And the “MIC ratio (*) on BN10055 Nal” value ([17]; nalidixic acid, Set 2)?
The value was 128.

And the “MIC ratio Chloramphenicol S. enterica BN1005ΔacrB” value (BN10055ΔacrB [18])?
Its value is 2.

What about the “MIC ratio Doxycycline S. enterica BN1005ΔacrB” value (BN10055ΔacrB [18]) of the same compound?
The value was 2.

What about the “MIC ratio Nalidixic acid S. enterica BN1005ΔacrB” value (BN10055ΔacrB [18]) of the same compound?
Its value is 4.
